target: T1, human IRAK4 (Homo sapiens, UniProt Q9NWZ3); assay: Human IRAK4 kinase activity inhibition assay (IRAK4 TR-FRET assay); assay type: biochemical; conditions: 1 mM ATP, GST-human IRAK4, average or median values
T1 construct: GST (N); made in house; host or cells: baculovirus-infected Hi5 (BTI-TN-5B1-4) insect cells
T1 sequence (Q9NWZ3 1-460): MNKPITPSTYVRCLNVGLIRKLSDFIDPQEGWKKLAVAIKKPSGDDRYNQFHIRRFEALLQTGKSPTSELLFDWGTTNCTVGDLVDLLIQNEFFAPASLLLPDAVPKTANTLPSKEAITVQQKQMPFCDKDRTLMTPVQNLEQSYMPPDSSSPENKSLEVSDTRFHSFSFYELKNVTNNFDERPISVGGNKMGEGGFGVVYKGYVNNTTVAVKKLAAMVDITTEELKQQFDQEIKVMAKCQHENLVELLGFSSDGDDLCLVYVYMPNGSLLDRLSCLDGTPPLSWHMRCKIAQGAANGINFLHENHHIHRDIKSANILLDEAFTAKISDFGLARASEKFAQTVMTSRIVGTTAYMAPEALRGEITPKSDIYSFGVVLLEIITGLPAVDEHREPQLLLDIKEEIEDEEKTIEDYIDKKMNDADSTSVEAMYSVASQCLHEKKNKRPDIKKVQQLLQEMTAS
Method in brief: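 GST-IRAK4 from insect cells (about 0.2 nM, linear range) was preincubated 15 min with compound (11 concentrations, 20 µM–0.073 nM) in HEPES pH 7.5 with MgCl2 and DTT before kinase reaction on a biotinylated peptide. Phosphopeptide was detected by TR-FRET (Eu anti-mouse-IgG/anti-phosphoserine/streptavidin-XL665, 1 h at 22°C) as the 665/620 nm ratio, normalized to no-compound and no-enzyme controls.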

Row | IC50 [nM] | SMILES
1 | 11.4 | CC1(O)CCN(C2CN(c3nc(NC4CCS(=O)(=O)CC4)nc4c3cnn4-c3cccc(C(F)(F)F)c3)C2)CC1 [Example I-80, 1-(1-{6-[(1,1-dioxidotetrahydro-2H-thiopyran-4-yl)amino]-1-[3-(trifluoromethyl)phenyl]-1H-pyrazolo[3,4-d]pyrimidin-4-yl}azetidin-3-yl)-4-methylpiperidin-4-ol]
2 | 83.2 | CCS(=O)(=O)N1CC(Nc2nc(N3CC(N4CCOCC4)C3)c3cnn(-c4cccc(C(F)(F)F)c4)c3n2)C1 [Example I-81, N-[1-(ethylsulfonyl)azetidin-3-yl]-4-[3-(morpholin-4-yl)azetidin-1-yl]-1-[3-(trifluoromethyl)phenyl]-1H-pyrazolo[3,4-d]pyrimidin-6-amine]
3 | 11.5 | CCS(=O)(=O)[C@H]1C[C@H](Nc2nc(N3CC(N4CCOCC4)C3)c3cnn(-c4cccc(C(F)(F)F)c4)c3n2)C1 [Example I-82, N-[trans-3-(ethylsulfonyl)cyclobutyl]-4-[3-(morpholin-4-yl)azetidin-1-yl]-1-[3-(trifluoromethyl)phenyl]-1H-pyrazolo[3,4-d]pyrimidin-6-amine]
4 | 48.3 | CCS(=O)(=O)N1CC(Nc2nc(N3C[C@@H](O)[C@H](O)C3)c3cnn(-c4cccc(C(F)(F)F)c4)c3n2)C1 [Example I-84, (3R,4R)-1-(6-{[1-(ethylsulfonyl)azetidin-3-yl]amino}-1-[3-(trifluoromethyl)phenyl]-1H-pyrazolo[3,4-d]pyrimidin-4-yl)pyrrolidine-3,4-diol]
5 | 7.87 | CCS(=O)(=O)[C@H]1C[C@H](Nc2nc(N3C[C@@H](O)[C@H](F)C3)c3cnn(-c4cccc(C(F)(F)F)c4)c3n2)C1 [Example I-87, (3R,4R)-1-(6-{[(1r,3R)-3-(ethylsulfonyl)cyclobutyl]amino}-1-[3-(trifluoromethyl)phenyl]-1H-pyrazolo[3,4-d]pyrimidin-4-yl)-4-fluoropyrrolidin-3-ol]
6 | 24.7 | CC(C)(O)C1CCN(c2nc(N[C@H]3C[C@@](C)(O)C3)nc3c2cnn3-c2cccc(C(F)(F)F)c2)CC1 [Example I-90, cis-3-({4-[4-(2-hydroxypropan-2-yl)piperidin-1-yl]-1-[3-(trifluoromethyl)phenyl]-1H-pyrazolo[3,4-d]pyrimidin-6-yl}amino)-1-methylcyclobutanol]
7 | 11.2 | CS(=O)(=O)[C@H]1C[C@H](Nc2nc(N3CCC(O)CC3)c3cnn(-c4cccc(C(F)(F)F)c4)c3n2)C1 [Example I-93, 1-(6-{[trans-3-(methylsulfonyl)cyclobutyl]amino}-1-[3-(trifluoromethyl)phenyl]-1H-pyrazolo[3,4-d]pyrimidin-4-yl)piperidin-4-ol]
8 | 25 | CCS(=O)(=O)[C@H]1C[C@H](Nc2nc(N3C[C@H](O)[C@@H](F)C3)c3cnn(-c4cccc(C(F)(F)F)c4)c3n2)C1 [Example I-95, (3S,4S)-1-(6-{[(1r,3S)-3-(ethylsulfonyl)cyclobutyl]amino}-1-[3-(trifluoromethyl)phenyl]-1H-pyrazolo[3,4-d]pyrimidin-4-yl)-4-fluoropyrrolidin-3-ol]
9 | 8.1 | O[C@H]1CN(c2nc(N[C@H]3C[C@H](O)C3)nc3c2cnn3-c2cccc(C(F)(F)F)c2)C[C@@H]1F [Example I-96, (3S,4S)-4-fluoro-1-(6-{[(1r,3S)-3-hydroxycyclobutyl]amino}-1-[3-(trifluoromethyl)-phenyl]-1H-pyrazolo[3,4-d]pyrimidin-4-yl)pyrrolidin-3-ol]
10 | 8.16 | O[C@H]1CN(c2nc(N[C@H]3C[C@@H](O)C3)nc3c2cnn3-c2cccc(C(F)(F)F)c2)C[C@@H]1F [Example I-97, (3S,4S)-4-fluoro-1-(6-{[(1s,3R)-3-hydroxycyclobutyl]amino}-1-[3-(trifluoromethyl)-phenyl]-1H-pyrazolo[3,4-d]pyrimidin-4-yl)pyrrolidin-3-ol]
11 | 16.2 | CS(=O)(=O)[C@H]1C[C@H](Nc2nc(N3CC(F)C3)c3cnn(-c4cccc(C(F)(F)F)c4)c3n2)C1 [Example I-99, 4-(3-fluoroazetidin-1-yl)-N-[trans-3-(methylsulfonyl)cyclobutyl]-1-[3-(trifluoromethyl)-phenyl]-1H-pyrazolo[3,4-d]pyrimidin-6-amine]
12 | 49.9 | OC1CCN(c2nc(N[C@H]3C[C@H](O)C3)nc3c2cnn3-c2cccc(C(F)(F)F)c2)CC1 [Example I-100]
13 | 49.9 | C[C@@]1(O)CCN(c2nc(N[C@H]3C[C@H](O)C3)nc3c2cnn3-c2cccc(C(F)(F)F)c2)C1 [Example I-102, (3R)-1-(6-{[(1r,3R)-3-hydroxycyclobutyl]amino}-1-[3-(trifluoromethyl)phenyl]-1H-pyrazolo[3,4-d]pyrimidin-4-yl)-3-methylpyrrolidin-3-ol]
14 | 11.4 | C[C@@]1(O)CCN(c2nc(N[C@H]3C[C@H](S(C)(=O)=O)C3)nc3c2cnn3-c2cccc(C(F)(F)F)c2)C1 [Example I-103, (3R)-3-methyl-1-(6-{[(1r,3R)-3-(methylsulfonyl)cyclobutyl]amino}-1-[3-(trifluoromethyl)-phenyl]-1H-pyrazolo[3,4-d]pyrimidin-4-yl)pyrrolidin-3-ol]
15 | 11.8 | CC1(O)CCN(C2CN(c3nc(N[C@H]4C[C@](C)(O)C4)nc4c3cnn4-c3cccc(C(F)(F)F)c3)C2)CC1 [Example I-110, 1-(1-{6-[(trans-3-hydroxy-3-methylcyclobutyl)amino]-1-[3-(trifluoromethyl)phenyl]-1H-pyrazolo[3,4-d]pyrimidin-4-yl}azetidin-3-yl)-4-methylpiperidin-4-ol]
16 | 16.8 | CC(C)(O)C1CN(c2nc(N[C@H]3C[C@@H](O)C3)nc3c2cnn3-c2cccc(C(F)(F)F)c2)C1 [Example I-116, cis-3-({4-[3-(2-hydroxypropan-2-yl)azetidin-1-yl]-1-[3-(trifluoromethyl)phenyl]-1H-pyrazolo[3,4-d]pyrimidin-6-yl}amino)cyclobutanol]
17 | 23.4 | O[C@@H]1CCN(c2nc(N[C@H]3C[C@@H](O)C3)nc3c2cnn3-c2cccc(C(F)(F)F)c2)C1 [Example I-117, (3R)-1-(6-{[(1s,3S)-3-hydroxycyclobutyl]amino}-1-[3-(trifluoromethyl)phenyl]-1H-pyrazolo[3,4-d]pyrimidin-4-yl)pyrrolidin-3-ol]
18 | 5.13 | O[C@H]1C[C@@H](Nc2nc(N3CC(N4CCC(F)(F)C4)C3)c3cnn(-c4cccc(C(F)(F)F)c4)c3n2)C1 [Example I-118, cis-3-({4-[3-(3,3-difluoropyrrolidin-1-yl)azetidin-1-yl]-1-[3-(trifluoromethyl)phenyl]-1H-pyrazolo[3,4-d]pyrimidin-6-yl}amino)cyclobutanol]
19 | 16.5 | O[C@H]1C[C@H](Nc2nc(N3CC(N4CC(F)C4)C3)c3cnn(-c4cccc(C(F)(F)F)c4)c3n2)C1 [Example I-119, trans-3-({4-(3-fluoro[1,3'-biazetidin]-1'-yl)-1-[3-(trifluoromethyl)phenyl]-1H-pyrazolo[3,4-d]pyrimidin-6-yl}amino)cyclobutanol]
20 | 16.6 | C[C@]1(O)C[C@H](Nc2nc(N3CC(N4CC(F)C4)C3)c3cnn(-c4cccc(C(F)(F)F)c4)c3n2)C1 [Example I-120, trans-3-({4-(3-fluoro[1,3'-biazetidin]-1'-yl)-1-[3-(trifluoromethyl)phenyl]-1H-pyrazolo[3,4-d]pyrimidin-6-yl}amino)-1-methylcyclobutanol]
21 | 3.65 | O=C1COCCN1C1CN(c2nc(N[C@H]3C[C@@H](O)C3)nc3c2cnn3-c2cccc(C(F)(F)F)c2)C1 [Example I-121, 4-(1-{6-[(cis-3-hydroxycyclobutyl)amino]-1-[3-(trifluoromethyl)phenyl]-1H-pyrazolo[3,4-d]pyrimidin-4-yl}azetidin-3-yl)morpholin-3-one]
22 | 7.98 | CC1(N2CCOCC2)CN(c2nc(N[C@H]3C[C@](C)(O)C3)nc3c2cnn3-c2cccc(C(F)(F)F)c2)C1 [Example I-123, trans-1-methyl-3-({4-[3-methyl-3-(morpholin-4-yl)azetidin-1-yl]-1-[3-(trifluoromethyl)-phenyl]-1H-pyrazolo[3,4-d]pyrimidin-6-yl}amino)cyclobutanol]
23 | 22.5 | C[C@]1(O)CCN(c2nc(N[C@H]3C[C@@H](O)C3)nc3c2cnn3-c2cccc(C(F)(F)F)c2)C1 [Example I-124, (3S)-1-(6-{[(1s,3R)-3-hydroxycyclobutyl]amino}-1-[3-(trifluoromethyl)phenyl]-1H-pyrazolo[3,4-d]pyrimidin-4-yl)-3-methylpyrrolidin-3-ol]
24 | 170 | CCC1(O)CN(c2nc(N[C@H]3CCN(C)C3)nc3c2cnn3-c2cccc(S(C)(=O)=O)c2)C1 [Example V-1, 3-ethyl-1-(6-{[(3S)-1-methylpyrrolidin-3-yl]amino}-1-[3-(methylsulfonyl)phenyl]-1H-pyrazolo[3,4-d]pyrimidin-4-yl)azetidin-3-ol]

Row | SMILES | IC50 [nM]
25 | C[C@]1(O)C[C@H](Nc2nc(N3CC(N4CCOCC4=O)C3)c3cnn(-c4cccc(C(F)(F)F)c4)c3n2)C1 [Example I-122, 4-(1-{6-[(trans-3-hydroxy-3-methylcyclobutyl)amino]-1-[3-(trifluoromethyl)phenyl]-1H-pyrazolo[3,4-d]pyrimidin-4-yl}azetidin-3-yl)morpholin-3-one] | 2.75

Source: patent EP3800188A1, “SUBSTITUTED PYRAZOLOPYRIMIDINES AS IRAK4 INHIBITORS” (Bayer AG, priority 2019, dated 2021)
